Reference: the supplement of paper PMC10307832

Experiments:
Assay in all cases: relative viability (nuclei count vs DMSO), 5 days (fraction); higher = more cells survive
[1] = tested on: A549
Outline: (§1)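 The day after seeding in 1536-well plates, lung cancer cell lines were treated by pin tool with a single drug, or with a fixed anchor-drug dose together with five library-drug doses (not always all listed) in √10 steps. After 5 days, a combined fix-and-stain solution (final 0.05% Triton X-100, 1% formaldehyde, 1 ug/ml Hoechst) was added. Nuclei counted on 4× images gave relative viability as treated counts over vehicle counts, reported as the median of duplicate plates.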

[2] = tested on: ABC-1
Outline: as §1

[3] = tested on: Calu-6
Outline: as §1

[4] = tested on: EBC-1
Outline: as §1

[5] = tested on: EKVX
Outline: as §1

[6] = tested on: IA-LM
Outline: as §1

[7] = tested on: NCI-H1299
Outline: as §1

[8] = tested on: NCI-H1648
Outline: as §1

[9] = tested on: NCI-H1703
Outline: as §1

[10] = tested on: NCI-H2126
Outline: as §1

[11] = tested on: NCI-H522
Outline: as §1

[12] = tested on: NCI-H1623
Outline: as §1

**Q.** How did the relative viability ([1]; first compound 0.005 µM) turn out when CC1(C)CCC(c2ccc(Cl)cc2)=C(CN2CCN(c3ccc(C(=O)NS(=O)(=O)c4ccc(N[C@H](CCN5CCOCC5)CSc5ccccc5)c(S(=O)(=O)C(F)(F)F)c4)cc3)CC2)C1 [Navitoclax] + O=C(c1cc(Cc2n[nH]c(=O)c3ccccc23)ccc1F)N1CCN(C(=O)C2CC2)CC1 [Olaparib] (partner 8 µM) was run?
**A.** 0.37

**Q.** What about the relative viability ([1]; first compound 0.01581 µM) of the same molecule?
**A.** 0.33

**Q.** What about the relative viability ([1]; first compound 0.05 µM) of the same molecule?
**A.** 0.119

**Q.** And the relative viability ([1]; first compound 0.1581 µM)?
**A.** 0.33

**Q.** What about the relative viability ([1]; first compound 0.5 µM) of the same molecule?
**A.** 0.302

**Q.** And the relative viability ([2]; first compound 0.005 µM)?
**A.** 0.909

**Q.** And the relative viability ([2]; first compound 0.01581 µM)?
**A.** 0.783

**Q.** What about the relative viability ([2]; first compound 0.05 µM) of the same molecule?
**A.** 0.838

**Q.** What about the relative viability ([2]; first compound 0.1581 µM) of the same molecule?
**A.** 0.859

**Q.** And the relative viability ([2]; first compound 0.5 µM)?
**A.** 0.776

**Q.** And the relative viability ([3]; first compound 0.005 µM)?
**A.** 0.57

**Q.** What about the relative viability ([3]; first compound 0.01581 µM) of the same molecule?
**A.** 0.518

**Q.** What about the relative viability ([3]; first compound 0.05 µM) of the same molecule?
**A.** 0.558

**Q.** What about the relative viability ([3]; first compound 0.1581 µM) of the same molecule?
**A.** 0.457

**Q.** And the relative viability ([3]; first compound 0.5 µM)?
**A.** 0.478

**Q.** What about the relative viability ([4]; first compound 0.005 µM) of the same molecule?
**A.** 0.745

**Q.** What about the relative viability ([4]; first compound 0.01581 µM) of the same molecule?
**A.** 0.864

**Q.** What about the relative viability ([4]; first compound 0.05 µM) of the same molecule?
**A.** 0.658

**Q.** What about the relative viability ([4]; first compound 0.1581 µM) of the same molecule?
**A.** 0.683

**Q.** What about the relative viability ([4]; first compound 0.5 µM) of the same molecule?
**A.** 0.663

**Q.** What about the relative viability ([5]; first compound 0.005 µM) of the same molecule?
**A.** 0.887

**Q.** And the relative viability ([5]; first compound 0.01581 µM)?
**A.** 0.994

**Q.** And the relative viability ([5]; first compound 0.05 µM)?
**A.** 0.784

**Q.** What about the relative viability ([5]; first compound 0.1581 µM) of the same molecule?
**A.** 0.891

**Q.** What about the relative viability ([5]; first compound 0.5 µM) of the same molecule?
**A.** 0.885

**Q.** What about the relative viability ([6]; first compound 0.005 µM) of the same molecule?
**A.** 0.814

**Q.** What about the relative viability ([6]; first compound 0.01581 µM) of the same molecule?
**A.** 0.836

**Q.** And the relative viability ([6]; first compound 0.05 µM)?
**A.** 0.792

**Q.** And the relative viability ([6]; first compound 0.1581 µM)?
**A.** 0.789

**Q.** And the relative viability ([6]; first compound 0.5 µM)?
**A.** 0.866

**Q.** And the relative viability ([7]; first compound 0.005 µM)?
**A.** 0.943

**Q.** And the relative viability ([7]; first compound 0.01581 µM)?
**A.** 1

**Q.** And the relative viability ([7]; first compound 0.05 µM)?
**A.** 0.949

**Q.** And the relative viability ([7]; first compound 0.1581 µM)?
**A.** 0.977

**Q.** What about the relative viability ([7]; first compound 0.5 µM) of the same molecule?
**A.** 0.956

**Q.** What about the relative viability ([8]; first compound 0.005 µM) of the same molecule?
**A.** 0.632

**Q.** What about the relative viability ([8]; first compound 0.01581 µM) of the same molecule?
**A.** 1.06

**Q.** What about the relative viability ([8]; first compound 0.1581 µM) of the same molecule?
**A.** 0.922

**Q.** And the relative viability ([8]; first compound 0.5 µM)?
**A.** 1.03

**Q.** And the relative viability ([9]; first compound 0.005 µM)?
**A.** 0.536

**Q.** What about the relative viability ([9]; first compound 0.01581 µM) of the same molecule?
**A.** 0.626

**Q.** What about the relative viability ([9]; first compound 0.05 µM) of the same molecule?
**A.** 0.508

**Q.** What about the relative viability ([9]; first compound 0.1581 µM) of the same molecule?
**A.** 0.512

**Q.** And the relative viability ([9]; first compound 0.5 µM)?
**A.** 0.536

**Q.** And the relative viability ([10]; first compound 0.005 µM)?
**A.** 0.912

**Q.** And the relative viability ([10]; first compound 0.01581 µM)?
**A.** 0.994

**Q.** And the relative viability ([10]; first compound 0.05 µM)?
**A.** 0.847

**Q.** What about the relative viability ([10]; first compound 0.1581 µM) of the same molecule?
**A.** 0.86

**Q.** What about the relative viability ([10]; first compound 0.5 µM) of the same molecule?
**A.** 0.9

**Q.** And the relative viability ([11]; first compound 0.005 µM)?
**A.** 0.657

**Q.** And the relative viability ([11]; first compound 0.01581 µM)?
**A.** 0.745

**Q.** What about the relative viability ([11]; first compound 0.05 µM) of the same molecule?
**A.** 0.757

**Q.** And the relative viability ([11]; first compound 0.1581 µM)?
**A.** 0.542

**Q.** And the relative viability ([11]; first compound 0.5 µM)?
**A.** 0.62

**Q.** What does the source list for Oc1nc(-c2ccc(C(F)(F)F)cc2)nc2c1CSCC2 [XAV939] + CCNC(=O)c1noc(-c2cc(C(C)C)c(O)cc2O)c1-c1ccc(CN2CCOCC2)cc1 [Luminespib] (partner 0.01 µM)?
**A.** relative viability ([2]; first compound 0.08 µM): 0.778; relative viability ([2]; first compound 0.253 µM): 0.584; relative viability ([2]; first compound 0.8 µM): 0.795; relative viability ([2]; first compound 2.53 µM): 0.405; relative viability ([5]; first compound 0.08 µM): 0.947; relative viability ([5]; first compound 0.253 µM): 0.786; relative viability ([5]; first compound 0.8 µM): 0.818; relative viability ([5]; first compound 2.53 µM): 0.7; relative viability ([12]; first compound 0.08 µM): 0.493; relative viability ([12]; first compound 0.253 µM): 0.432; relative viability ([12]; first compound 0.8 µM): 0.415; relative viability ([12]; first compound 2.53 µM): 0.357; relative viability ([10]; first compound 0.08 µM): 0.985; relative viability ([10]; first compound 0.253 µM): 0.843; relative viability ([10]; first compound 0.8 µM): 0.869; relative viability ([10]; first compound 2.53 µM): 0.733; relative viability ([11]; first compound 0.08 µM): 1.45; relative viability ([11]; first compound 0.253 µM): 1.24; relative viability ([11]; first compound 0.8 µM): 1.05; relative viability ([11]; first compound 2.53 µM): 1.09
